From patent publication US6759051B2, “Cosmetic or dermatological composition comprising at least one alkynyl carbamate and at least one polyol” (L'Oreal, priority 1998, dated 2004)

Tested on: Pityrosporum ovale from the Institut Pasteur, reference CIP 1363.82
Experiment: Antifungal activity by the MIC (Minimum Inhibitory Concentration) method
Assay type: cell-based
Settings: each compound at the concentration MIC/2; Sabouraud+Tween 40+glyceryl monooleate agar medium, 48 hours at 30° C
Procedure: The activity of the combination of compound (A) and compound (B) was determined by a conventional method known as the MIC (Minimum Inhibitory Concentration), the MIC corresponding to the concentration at which a given […] inhibits the growth of a given strain under defined conditions.
In this instance, strains of Pityrosporum ovale from the Institut Pasteur, reference CIP 1363.82, were used.
An inoculum of a fresh culture, of 1 to 10×10^7 cells/ml, is introduced into a Sabouraud+Tween 40 at 10 g/l+glyceryl monooleate at 2.5 g/l agar medium, in the presence or absence of the compound or of the combination of the compounds to be studied, and incubated for 48 hours at 30° C.

Compound	growth of the microorganism
CCCCC(CC)COCC(O)CO (centres unmarked) [Compound B, 3-(2-ethylhexyloxy)-1,2-propanediol]	identical to that of the control medium
CCCCNC(=O)OCC#CI [Compound A, 3-iodo-2-propynyl butyl carbamate]	identical to that of the control medium
